Measurements reported in patent US11918597B2, “Triple combination therapies for anti-aging” (LUNELLA BIOTECH, INC., priority 2018, dated 2024).
Where two headings read alike, the source gives them in different places.

Columns and labels:
[1] = test system: CSCs; experiment: CSC propagation / CSC inhibition activity (cell line not stated); format: cell-based
[2] = test system: senescent MRC-5 cells; experiment: BrdU-induced senescence senolytic assay (SRB / xCELLigence); format: cell-based, human; conditions: BrdU-treated MRC-5 fibroblasts; even at concentrations as low as 25 μM
Procedure: (§1) Bromodeoxyuridine (5-bromo-2′-deoxyuridine), also known as BrdU, was used to induce senescence. BrdU is an analog of the nucleoside thymidine commonly used to identify proliferating cells. BrdU induces controlled DNA damage, and drives cells towards senescence with high efficiency. The BrdU assay of the present approach calls for subjecting normal fibroblasts to prolonged culture (8-days) in the presence of BrdU at 100 μM to induce controlled DNA-damage and senescence. […] Then, isogenically-matched cultures of normal and senescent fibroblasts may be used for drug screening to identify drugs having senolytic activity. Senolytic activity may be detected using the sulforhodamine B assay, also known in the art as the SRB assay. This assay measures the amount of protein remaining attached to the tissue-culture dishes, and is a surrogate marker for cell viability. This approach may be used to rapidly screen compounds, including clinically-approved drugs, such as, for example, antibiotics. For example, in embodiments described herein, the present approach was used to screen erythromycin family members, including azithromycin and roxithromycin, among other compounds and conjugates. It should be appreciated that the present approach may be used to screen other compounds.

[3] = test system: MCF7 cells; experiment: Mammosphere formation assay (CSC propagation); format: cell-based, human; conditions: for IC50: MCF7 cells (FIG. 15), read-out: half maximal inhibitory concentration (IC50), mammosphere assay; for inhibition at 250 µM: suspension treatment 5-days, doxycycline 1 μM, azithromycin 1 μM, Vitamin C 250 μM, read-out: MFE (% Inhibition ± SD)
Procedure: The following paragraphs discuss laboratory data and analysis for select embodiments of the present approach. Doxycycline and azithromycin were tested alone and in combination at low concentrations to evaluate the resulting inhibitory effect on mammosphere formation. FIGS. 1A-1C summarize mammosphere formation data for varying concentrations and combinations.
The temporal effects of pre-treatment on the efficacy of the present approach have been evaluated in the pre-clinical setting, using CSC propagation as the measurement. […] This may be due to MCF7 cells' ability to induce oxidative stress, driving an anti-oxidant response. Given these […] results, it appears embodiments of the present approach that simultaneously co-administer all three therapeutic agents appear to have the most significant impact on the CSC population, and are preferred. […] However, some embodiments may call for administering therapeutic agents within a narrow window, such as 1-3 hours, over multiple days (e.g., 3-7 days in some embodiments, 4-14 days in some embodiments). The antibiotics may be administered in oral form (e.g., pill or tablet), while the Vitamin C is administered intravenously in some embodiments. In others, all three therapeutic agents may be administered orally, either as separate pills or tabs, or as a single concoction containing each therapeutic agent.
Mammosphere Formation Assay: A single cell suspension was prepared using enzymatic (lx Trypsin-EDTA, Sigma Aldrich, #T3924), and manual disaggregation (25 gauge needle). Cells were plated at a density of 500 cells/cm2 in mammosphere medium (DMEM-F12+B27+20 ng/ml EGF+PenStrep) under non-adherent conditions, in culture dishes pre-coated with (2-hydroxyethylmethacrylate) (poly-HEMA, Sigma, #P3932), called “tumor-sphere plates”. Vehicle alone (DMSO) control cells were processed in parallel. Cells were grown for 5 days and maintained in a humidified incubator at 37° C. After 5 days of culture, 3D mammospheres >50 μm were counted using an eye piece (“graticule”), and the percentage of cells plated which formed spheres was calculated and is referred to as percent mammosphere formation (MFE, and was normalized to one (1=100% MSF).

[4] = test system: bulk MCF7 cells; experiment: Cell viability, bulk MCF7 cells; format: cell-based, human; conditions: range of concentrations, up to 20 μM
From the text: Embodiments of therapeutic agents conjugated with targeting signals have shown less toxicity in bulk cancer cells and normal fibroblasts compared to unconjugated therapeutic agents. For example, FIGS. 17A and 17B show cell viability data for doxycycline and the doxycycline-myristate conjugate shown as compound [1], for bulk MCF7 cells and bulk BJ cells, respectively. The data represents cell viability expressed as a percentage of a control. […] Similar behavior has been seen in other therapeutic agents conjugated with targeting signals.

[5] = test system: bulk BJ cells; experiment: Cell viability, bulk BJ cells; format: cell-based, human; conditions: bulk BJ cells (normal fibroblasts); range of concentrations, up to 20 μM
Procedure: as §1, with “For example, in embodiments described herein, the present approach was used to screen erythromycin family members, including azithromycin and roxithromycin, among other compounds and conjugates. It should be appreciated that the present approach may be used to screen other compounds.” left out
Embodiments of therapeutic agents conjugated with targeting signals have shown less toxicity in bulk cancer cells and normal fibroblasts compared to unconjugated therapeutic agents. […] The data represents cell viability expressed as a percentage of a control. […]

[6] = test system: rat heart; conditions: conditions of hypoxia, Vitamin C alone; cited from earlier work
[7] = oral administration; cited from earlier work
[8] = test system: U937 cells; conditions: 15 minutes, media containing 3 μM Vitamin C; cited from earlier work
[9] = test system: MCF7 cells; experiment: Metabolic flux analysis (Seahorse XFe96, OCR and ECAR); format: cell-based, human; conditions: MCF7 monolayers pre-treated 3-days, doxycycline 1 μM, azithromycin 1 μM, Vitamin C 250 μM as applicable
Procedure: Metabolic Flux Analysis: Real-time oxygen consumption rates (OCR) and extracellular acidification rates (ECAR) rates in MCF7 cells were determined using the Seahorse Extracellular Flux (XFe96) analyzer (Seahorse Bioscience, USA). Briefly, 1.5×10^4 cells per well were seeded into XFe96 well cell culture plates, and incubated overnight to allow cell attachment. Then, cells were treated with antibiotics for 72 h. Vehicle-alone control cells were processed in parallel. After 72 hours of incubation, cells were washed in pre-warmed XF assay media (or for OCR measurement, XF assay media supplemented with 10 mM glucose, 1 mM Pyruvate, 2 mM L-glutamine and adjusted at 7.4 pH). Cells were then maintained in 175 μL/well of XF assay media at 37° C., in a non-CO2 incubator for 1 hour. During the incubation time, we loaded 25 μL of 80 mM glucose, 9 μM oligomycin, and 1M 2-deoxyglucose (for ECAR measurement) or 10 μM oligomycin, 9 μM FCCP, 10 μM rotenone, 10 μM antimycin A (for OCR measurement), in XF assay media into the injection ports in the XFe96 sensor cartridge. Measurements were normalized by protein content (Bradford assay). Data sets were analyzed using XFe96 software and GraphPad Prism software, using one-way ANOVA and Student's t-test calculations. All experiments were performed in quintuplicate, three times independently.

[10] = test system: senescent fibroblasts; experiment: Senolytic activity on senescent fibroblasts; format: cell-based; conditions: azithromycin by itself
From the text: Embodiments of the present approach also have implications for improving health-span and life-span. Azithromycin, by itself, is an FDA-approved drug with remarkable senolytic activity that targets and removes senescent fibroblasts, such as myo-fibrobasts. This senolytic activity has considerable efficiency, approaching nearly 97%. The accumulation of pro-inflammatory senescent cells is thought to be the primary cause of many aging-associated diseases, such as heart disease, diabetes, dementia and cancer, for example. Since cancer-associated fibroblasts (CAFs) are senescent myo-fibroblasts, with tumor promoting activity, triple combination embodiments of the present approach with Azithromycin may also effectively target the glycolytic tumor stroma of aggressive and metastatic cancers, especially those bearing the metabolic hallmarks of the “Reverse Warburg Effect.” In some embodiments, the composition prevents acquisition of a senescence-associated secretory phenotype. In some embodiments, the composition facilitates tissue repair and regeneration. In some embodiments, the composition increases at least one of organismal life-span and health-span.

In the case of CCCCCCCCCCCCCC(=O)N(C)[C@H]1C[C@@H](C)O[C@@H](O[C@@H]2[C@@H](C)[C@H](O[C@H]3C[C@@](C)(OC)[C@@H](O)[C@H](C)O3)[C@@H](C)C(=O)O[C@H](CC)[C@@](C)(O)[C@H](O)[C@@H](C)N(C)C[C@H](C)C[C@@]2(C)O)[C@@H]1O [Compound [15]], the “potency for CSCs compared to azithromycin alone” value [1] is reported as “improved” and the “selectivity for CSCs compared to azithromycin alone” value [1] is reported as “improved”.
For CCCCCCCCCCCCCC(=O)N(C)[C@H]1C[C@@H](C)O[C@@H](O[C@@H]2[C@@H](C)[C@H](O[C@@H]3C[C@@](C)(OC)[C@@H](O)[C@H](C)O3)[C@@H](C)C(=O)O[C@H](CC)[C@@](C)(O)[C@H](O)[C@@H](C)N(C)C[C@H](C)C[C@@]2(C)O)[C@@H]1O [azithromycin—fatty acid conjugate, N-[(2S,3R,4S,6R)-2-[ [(2R,3S,4R,5R,8R,10R,11R,12S,13S,14R)-2-ethyl-3,4,10-trihydroxy-13-[(2S,4R,5S,6S)-5-hydroxy-4-methoxy-4,6-dimethyl-tetrahydropyran-2-yl]oxy-3,5,6,8,10,12,14-heptamethyl-15-oxo-1-oxa-6-azacyclopentadec-11-yl]oxy]-3-hydroxy-6-methyl-tetrahydropyran-4-yl]-N-methyl-tetradecanamide], the “senescent MRC-5 cells targeted (final cell index after 5 days, xCELLigence)” value [2] was ~100%.
C[C@H]1c2cccc(O)c2C(=O)C2=C(O)[C@]3(O)C(=O)C(C(N)=O)=C(O)[C@@H](N(C)C)[C@@H]3[C@@H](O)[C@@H]21 [doxycycline] showed an IC50 ([3]; Homo sapiens) of 18.1 µM.
With CCCCCCCCCCCCCC(=O)Nc1ccc2c(c1O)C(=O)C1=C(O)[C@]3(O)C(=O)C(C(N)=O)=C(O)[C@@H](N(C)C)C3[C@@H](O)C1[C@H]2C (stereo partly drawn) [doxycycline-myristate conjugate, (4S,5S,6R,12aS)-4-(dimethylamino)-3,5,10,12,12a-pentahydroxy-6-methyl-1,11-dioxo-9-(tetradecanoylamino)-4a,5,5a,6-tetrahydro-4H-tetracene-2-carboxamide] the inhibition at 2.5 µM ([3]; Homo sapiens, MCF7, 2.5 μM, read-out: inhibition of MCF7 mammosphere formation relative to the control) was 40 to 60%, the IC50 ([3]; Homo sapiens) was 3.46 µM and the “potency in mammosphere assay compared with doxycycline (FIG. 14)” value ([3]; MCF7, 1.5 μM, 3 μM, 6 μM, 12 μM) was “more potent than unconjugated doxycycline”. The “CSC inhibition activity compared with the unconjugated antibiotic” value ([1]; fatty acid moiety is myristate (n is 12)) was “better CSC inhibitory properties”, the “toxicity (cell viability as percentage of control)” value [4] was “less toxic than doxycycline” and the “toxicity (cell viability as percentage of control)” value [5] was “less toxic than doxycycline”.
In the case of O=C1O[C@H]([C@@H](O)CO)C(O)=C1O [Vitamin C, Ascorbic Acid], the “increase of mitochondrial ATP production” value [6] is given as “up to 1.5 fold”, the “peak Vitamin C concentration in blood/serum/plasma” value [7] is given as “about 250 μM” and the “Vitamin C level reached in the mitochondria” value [8] is given as 5 mM. For the same compound, the inhibition at 250 µM ([3]; Homo sapiens, MCF7, Monolayer pre-treatment D + A 7-days) was 39.1%, the inhibition at 250 µM ([3]; Homo sapiens, MCF7, Monolayer pre-treatment Vit C 7-days) was 49.2% and the “ATP production / ATP levels” value [9] was “significantly increased”. For the same compound, the “basal and maximal respiration” value [9] was “significantly increased”, the “glycolysis / glycolytic function (ECAR)” value [9] was “significantly increased” and the glycolytic reserve [9] was “significantly increased”. For the same compound, the glycolytic reserve capacity [9] was “decreasing”, the “oxidative mitochondrial metabolism (OCR, mitochondrial oxygen consumption)” value [9] was “significantly increased” and the “ATP production / ATP levels” value ([9]; listed as low-dose Vitamin C) was “increased”. For the same compound, the “basal and maximal respiration” value ([9]; listed as low-dose Vitamin C) was “increased”, the “glycolysis / glycolytic function (ECAR)” value ([9]; listed as low-dose Vitamin C) was “increased” and the “oxidative mitochondrial metabolism (OCR, mitochondrial oxygen consumption)” value ([9]; listed as low-dose Vitamin C) was “increases”.
With CC[C@H]1OC(=O)[C@H](C)[C@@H](O[C@H]2C[C@@](C)(OC)[C@@H](O)[C@H](C)O2)[C@H](C)[C@@H](O[C@@H]2O[C@H](C)C[C@H](N(C)C)[C@H]2O)[C@](C)(O)C[C@@H](C)CN(C)[C@H](C)[C@@H](O)[C@]1(C)O [azithromycin] the “senolytic activity, efficiency of removing senescent fibroblasts” value [10] was ~97% and the “inhibition of mammosphere formation” value ([3]; alone at low concentrations (0.1 μM and 1 μM)) was “little or no effect”.
